The target of test [1] is T1, AtPmtAΔN25 (Agrobacterium fabrum, UniProt A9CKE9).
T1 construct: gene Atu0300; lacks residues 1-25 (N-terminal amphipathic helix); N-terminal His6-tag cut with HRV 3C protease; expressed in E. coli C43(DE3); full length 197 residues; four molecules in the asymmetric unit
T1 sequence (A9CKE9 26-197): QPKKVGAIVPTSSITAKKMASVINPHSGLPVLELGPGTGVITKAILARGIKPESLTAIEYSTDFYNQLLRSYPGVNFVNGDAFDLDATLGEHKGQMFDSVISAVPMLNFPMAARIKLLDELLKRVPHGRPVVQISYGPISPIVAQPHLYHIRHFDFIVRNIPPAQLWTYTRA
Kind of test: X-ray crystal structure ([…] Å). It is filed as binding. The settings on record: cocrystallised with SAM at 10:1 ligand-to-protein, pH 8.0, 20 °C; density assigned to MTA as SAM cleavage product; SAM site.

Test [2] addresses T1, AtPmtAΔN25. Kind of test: X-ray crystal structure ([…] Å) and 1H-15N HSQC NMR titration. It is filed as binding. The settings on record: cocrystallised at 10:1 ligand-to-protein, pH 8.0, 20 °C; NMR titration 0-10 equivalents, pH 7.0, 10 °C; SAM site (Gly-rich loop).

Take `CSC[C@H]1O[C@@H](n2cnc3c(N)ncnc32)[C@H](O)[C@@H]1O` [5′-methylthioadenosine]: in test [1], the “X-ray crystal structure (2.04 Å)” value is on record as “Therefore, we assigned the electron density to MTA”.

For `Nc1ncnc2c1ncn2[C@@H]1O[C@H](CSCC[C@H](N)C(=O)O)[C@@H](O)[C@H]1O` [SAH], the “X-ray crystal structure (1.95 Å) and 1H-15N HSQC NMR titration” value in test [2] is given as “All four AtPmtAΔN25 molecules in the asymmetric unit contained SAH molecules with clear electron densities”.
